≈ marks a conversion by molar mass, not a printed value. Calls of active or inactive are those of the source. The calls are words filed in the database; no cut-off is given here.
Legend:
HepG2 [1] = assay: Induction of TRIB1 expression in human HepG2 cells measured after overnight incubation by qRT-PCR analysis; type: functional, cell-based
HepG2 [2] = assay: Induction of LDLR expression in human HepG2 cells by luminex assay; type: functional, cell-based
HepG2 [3] = assay: Inhibition of PCSK9 secretion in human HepG2 cells by luminex assay; type: functional, cell-based
HepG2 [4] = assay: Down regulation of PCSK9 expression in human HepG2 cells after 24 hrs by ELISA; type: functional, cell-based
HepG2 [5] = assay: Up regulation of LDLR expression in human HepG2 cells after 24 hrs by ELISA; type: functional, cell-based
HepG2 [6] = assay: Induction of LDL uptake in human HepG2 cells preincubated for 20 hrs followed by BODIPY-FL-LDL addition and measured after 5 hrs by Hoechst 33342 staining based microscopic analysis; type: functional, cell-based
HepG2 [7] = assay: Up regulation of LDLR gene expression in human HepG2 cells measured after 6 hrs by qRT-PCR analysis relative to control; type: functional
HepG2 [8] = assay: Up regulation of TRIB1 gene expression in human HepG2 cells measured after 6 hrs by qRT-PCR analysis relative to control; type: functional
HepG2 [9] = assay: Up regulation of TRIB1 gene expression in human HepG2 cells measured after 6 hrs by qRT-PCR analysis; type: functional, cell-based; conditions: HepG2, 6 h
HepG2 [10] = assay: Up regulation of LDLR gene expression in human HepG2 cells measured after 6 hrs by qRT-PCR analysis; type: functional, cell-based; conditions: HepG2, 6 h
HepG2 [11] = assay: Down regulation of PCSK9 gene expression in human HepG2 cells measured after 24 hrs by qRT-PCR analysis; type: functional, cell-based; conditions: HepG2, 24 h
[12] = Solubility of the compound in 1% DMSO/phosphate buffered saline at pH 7.4 incubated for 18 hrs under shaking condition by UPLC/MS analysis; type: physicochemical
[13] = Stability in mouse liver microsomes assessed as parent compound remaining at 1 uM incubated for 60 mins under shaking condition by UPLC/MS analysis; type: ADME, Microsome; conditions: read-out: Stability
[14] = Tmax in C57BL/6 mouse plasma at 10 mg/kg, ip administered as single dose by mass spectrometry; type: ADME, organism-based
[15] = Cmax in C57BL/6 mouse plasma at 10 mg/kg, ip administered as single dose by mass spectrometry; type: ADME, organism-based; parameters: dose 10 mg/kg, route intraperitoneal
[16] = AUC (infinity) in C57BL/6 mouse plasma at 10 mg/kg, ip administered as single dose by mass spectrometry; type: ADME, organism-based; parameters: dose 10 mg/kg, route intraperitoneal, time infinity; conditions: in vivo
[17] = Half life in C57BL/6 mouse plasma at 10 mg/kg, ip administered as single dose by mass spectrometry; type: ADME, organism-based
[18] = Clearance in C57BL/6 mouse plasma at 10 mg/kg, ip administered as single dose by mass spectrometry; type: ADME, organism-based
[19] = Apparent volume of distribution in C57BL/6 mouse plasma at 10 mg/kg, ip administered as single dose by mass spectrometry; type: ADME, organism-based; conditions: in vivo
[20] = Tmax in C57BL/6 mouse liver at 10 mg/kg, ip administered as single dose by mass spectrometry; type: ADME, organism-based
[21] = Cmax in C57BL/6 mouse liver at 10 mg/kg, ip administered as single dose by mass spectrometry; type: ADME, organism-based; parameters: dose 10 mg/kg, route intraperitoneal
[22] = AUC (infinity) in C57BL/6 mouse liver at 10 mg/kg, ip administered as single dose by mass spectrometry; type: ADME, organism-based; parameters: dose 10 mg/kg, route intraperitoneal, time infinity; conditions: in vivo
[23] = Half life in C57BL/6 mouse liver at 10 mg/kg, ip administered as single dose by mass spectrometry; type: ADME, organism-based
[24] = Apparent volume of distribution in C57BL/6 mouse liver at 10 mg/kg, ip administered as single dose by mass spectrometry; type: ADME, organism-based; conditions: in vivo
[25] = Unbound fraction in C57BL/6 mouse liver at 10 mg/kg, ip administered as single dose by mass spectrometry; type: ADME, organism-based
[26] = Drug uptake in C57BL/6 mouse at 15 to 45 mg/kg, ip administered as single dose measured at 8 to 12 hrs post dose by mass spectrometry; type: ADME, organism-based; conditions: in vivo
[27] = Toxicity in C57BL/6 mouse at 15 to 45 mg/kg, ip administered as single dose measured over 24 hrs; type: organism-based; conditions: in vivo

## CN1C(=O)c2cc(NC(=O)c3ccc(C(F)(F)F)cc3)ccc2OC[C@@H]2O[C@@H](CC(=O)NC3Cc4ccccc4C3)CC[C@@H]21
HepG2 [1]
  EC50: 2030 nM
HepG2 [2]
  Activity: Active
HepG2 [3]
  inhibition: Active
HepG2 [4]
  Activity: Active
HepG2 [5]
  Activity: Active
HepG2 [6]
  Activity: Active

## CC(C)COC(=O)NC[C@@H]1CC[C@H]2[C@H](COc3ccc(NC(=O)c4ccc(C(F)(F)F)cc4)cc3C(=O)N2C)O1
HepG2 [7]
  max activation: 3.7
HepG2 [8]
  max activation: 5.8
HepG2 [9]
  EC50: 80 nM
HepG2 [10]
  EC50: 170 nM
HepG2 [11]
  EC50: 60 nM
[12]
  solubility kinetic at 18 h: 7 µM (≈ 3.95 µg/mL)
[13]
  remaining at 1 h, 1 µM: 28%
[14]
  Tmax: 30 min
[15]
  Cmax: 2310 ng/mL
[16]
  AUC: 3616 µg/L/h
[17]
  half-life: 67.2 min
[18]
  CL/F: 46.2 mL/min/kg
[19]
  Vz: 4.48 L/kg
[20]
  Tmax: 4.8 min
[21]
  Cmax: 13100 ng/mL
[22]
  AUC: 16803 µg/L/h
[23]
  half-life: 69.6 min
[24]
  Vz: 0.99 L/kg
[25]
  fraction unbound: 0.01
[26]
  Drug uptake: Active
[27]
  Activity: Non-Toxic

## CN1C(=O)c2cc(NC(=O)c3ccc(C(F)(F)F)cc3)ccc2OC[C@@H]2O[C@H](CNC(=O)[C@@H]3CCCO3)CC[C@@H]21
HepG2 [7]
  max activation: 4.3
HepG2 [8]
  max activation: 3.7
HepG2 [9]
  EC50: 1100 nM
HepG2 [10]
  EC50: 2450 nM
HepG2 [11]
  EC50: 25 nM
[12]
  solubility kinetic at 18 h: 90 µM (≈ 50.5 µg/mL)
[13]
  remaining at 1 h, 1 µM: 54%
